Our source for the inhibition, IC50 and Ki values is ChEMBL document CHEMBL1147070 (Drug Metab Dispos, 2007).

Holding throughout (assay type): cell-based
One data set concerns the target T1, URAT1 (SLC22A12) (Homo sapiens, UniProt Q96S37).
T1 sequence (Q96S37 whole entry): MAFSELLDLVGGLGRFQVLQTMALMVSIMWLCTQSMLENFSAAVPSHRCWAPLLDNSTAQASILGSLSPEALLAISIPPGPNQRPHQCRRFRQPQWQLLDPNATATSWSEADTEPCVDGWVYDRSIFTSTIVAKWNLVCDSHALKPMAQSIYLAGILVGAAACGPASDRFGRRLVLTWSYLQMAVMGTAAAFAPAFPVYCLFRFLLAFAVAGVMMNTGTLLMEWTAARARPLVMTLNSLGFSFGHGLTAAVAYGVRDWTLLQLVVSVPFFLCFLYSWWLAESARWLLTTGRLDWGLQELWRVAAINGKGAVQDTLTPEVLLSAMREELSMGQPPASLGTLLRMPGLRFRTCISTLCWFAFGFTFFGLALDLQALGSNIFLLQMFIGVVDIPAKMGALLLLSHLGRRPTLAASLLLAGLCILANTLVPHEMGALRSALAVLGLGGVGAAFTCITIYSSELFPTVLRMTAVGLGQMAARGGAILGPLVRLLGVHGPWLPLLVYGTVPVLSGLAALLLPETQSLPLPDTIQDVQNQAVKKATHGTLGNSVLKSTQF
Description: Inhibition of human URAT1-mediated urate uptake in HEK293 cells at 2 uM. The settings on record: HEK293 cells expressing human URAT1, probe urate.

Data set [1] addresses T2, Solute carrier family 22 member 12 (Homo sapiens, UniProt Q96S37).
T2 sequence (Q96S37 whole entry): T1 sequence (Q96S37 whole entry)
Description: Inhibition of human URAT1-mediated urate uptake in HEK293 cells.

Data set [2] addresses T2, Solute carrier family 22 member 12. Description: Inhibition of human URAT1-mediated urate uptake in HEK293 cells by competitive inhibition assay.

A word on the inhibition: it is the change of the read-out against control, counted positive when it falls. The term IC50 denotes the concentration needed to halve the response being measured. Broadly, the Ki is the dissociation constant of the complex between target and ligand, obtained from inhibition or displacement.

As for `CCCN(CCC)S(=O)(=O)c1ccc(C(=O)O)cc1` [PROBENECID], 2 µM produced 30% inhibition against URAT1 (SLC22A12). `O=c1c(O)c(-c2ccc(O)cc2O)oc2cc(O)cc(O)c12` [MORIN]: in data set [1], the IC50 was 2 µM. The same compound returned an inhibition constant Ki in data set [2] of 5.74 µM.

As to `O=C1C(CC[S+]([O-])c2ccccc2)C(=O)N(c2ccccc2)N1c1ccccc1` (stereo not given) [SULFINPYRAZONE], the half-maximal inhibitory concentration (IC50) in data set [1] came out at 100 µM.

On URAT1 (SLC22A12), `CCc1oc2ccccc2c1C(=O)c1cc(Br)c(O)c(Br)c1` [BENZBROMARONE] registered an inhibition at 2 µM of 70%.
